Measured values reported in the NIST ThermoML archive (doi:10.1016/j.fluid.2008.04.014).
Numbers after ± are expanded uncertainties.

Key:
[1] = Liquid; for mass density: 293.15 K, 101.33 kPa, Vibrating tube method; for Normal boiling temperature: Manometric method
[2] = refractive index (Na D-line) (dimensionless); details: 293.15 K; 101.33 kPa; Liquid; Standard Abbe refractometry

SMILES | mass density [1] [kg/m3] | Normal boiling temperature [1] [°C] | refractive index [2]
O=CO [formic acid] | 1221.1 ± 0.4 | 101.00 ± 1 | 1.3709 ± 0.0011
O [water] |  |  | 1.3334 ± 0.001

Other lines, results leading:

mass density [1] [kg/m3] | Normal boiling temperature [1] [°C] | refractive index [2] | SMILES
1044.7 ± 0.3 | 117.90 ± 0.4 | 1.3719 ± 0.0011 | CC(=O)O [acetic acid]
1160.8 ± 0.4 | 202.00 ± 1 | 1.4415 ± 0.0011 | COC(=O)/C=C\C(=O)OC [dimethyl cis-butenedioate]
988.3 ± 0.3 | 141.20 ± 0.4 | 1.391 ± 0.0011 | CCC(=O)O [propanoic acid]
